IC50 data for 21 compounds are collected here from patent US8901118B2, “Compounds and methods for kinase modulation, and indications therefor” (Plexxikon Inc., priority 2010, dated 2014).

One experiment concerns the target CYP2D6 (Homo sapiens, UniProt P10635). Description: CYP2D6 inhibition (fluorescent substrate AMMC). It counts as in vitro ADME. The following applies: read-out: Cyp IC50 2D6. Summed up:
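IC50 derives from metabolite fluorescence against compound concentration, read at excitation 409 nm and emission 460 nm for CYP1A2/2C19 or 530 nm for CYP2C9/2D6. Incubations ran at 37° C for 15 min (1A2), 45 min (2C9) or 30 min (2C19, 2D6), after serial dilution into NADPH cofactor mix and 10 min preincubation.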

Another experiment has as its target T1, BCR-NTRK3 BaF3 cells (Homo sapiens, UniProt Q16288).
T1 construct: fused on or other part: P11274 (Breakpoint cluster region protein)
Put plainly: BaF3 BCR-NTRK3 cell proliferation assay (ATPlite). The following applies: read-out: Inhibition of Cell Proliferation IC50, BCR/BaF3 TrkC. In kind it is cell-based. Summed up:
(§1)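 IL-3-free growth, 3-day compound exposure (8-point 1:3 titration, top 10 μM, DMSO control), 37 °C 5% CO2. BaF3 10,000 or MV-4-11 25,000 cells/well, plated overnight beforehand. Read-out ATPlite luminescence vs concentration → IC50.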
A general note: Cellular ATP, detected with luciferase, serves as a proxy for viable cell number.

Another experiment has as its system SKNSH cells. Put plainly: SKNSH (human neuroblastoma) cell proliferation assay (ATPlite). The following applies: SK-N-SH, read-out: Inhibition of Cell Proliferation IC50, SKNSH. In kind it is cell-based. Summed up: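 Fms/Trk inhibitor efficacy was tested by proliferation of SKNSH neuroblastoma cells. After 3 days of compound exposure at 37° C. in 5% CO2, 20 μL per well of ATPlite 1 step reagent was added, plates sat 10 minutes at room temperature, and luminescence, proportional to cell number, was read on a Safire reader to derive IC50.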

Another experiment addresses T2, BCR-NTRK2 BaF3 cells (Homo sapiens, UniProt Q16620).
T2 construct: fused on or other part: P11274 (Breakpoint cluster region protein)
Put plainly: BaF3 BCR-NTRK2 cell proliferation assay (ATPlite). In kind it is cell-based. The following applies: read-out: Inhibition of Cell Proliferation IC50, BCR/BaF3 TrkB. In a few lines:
as §1

T1 sequence (Q16288 whole entry, the tested form may be a part): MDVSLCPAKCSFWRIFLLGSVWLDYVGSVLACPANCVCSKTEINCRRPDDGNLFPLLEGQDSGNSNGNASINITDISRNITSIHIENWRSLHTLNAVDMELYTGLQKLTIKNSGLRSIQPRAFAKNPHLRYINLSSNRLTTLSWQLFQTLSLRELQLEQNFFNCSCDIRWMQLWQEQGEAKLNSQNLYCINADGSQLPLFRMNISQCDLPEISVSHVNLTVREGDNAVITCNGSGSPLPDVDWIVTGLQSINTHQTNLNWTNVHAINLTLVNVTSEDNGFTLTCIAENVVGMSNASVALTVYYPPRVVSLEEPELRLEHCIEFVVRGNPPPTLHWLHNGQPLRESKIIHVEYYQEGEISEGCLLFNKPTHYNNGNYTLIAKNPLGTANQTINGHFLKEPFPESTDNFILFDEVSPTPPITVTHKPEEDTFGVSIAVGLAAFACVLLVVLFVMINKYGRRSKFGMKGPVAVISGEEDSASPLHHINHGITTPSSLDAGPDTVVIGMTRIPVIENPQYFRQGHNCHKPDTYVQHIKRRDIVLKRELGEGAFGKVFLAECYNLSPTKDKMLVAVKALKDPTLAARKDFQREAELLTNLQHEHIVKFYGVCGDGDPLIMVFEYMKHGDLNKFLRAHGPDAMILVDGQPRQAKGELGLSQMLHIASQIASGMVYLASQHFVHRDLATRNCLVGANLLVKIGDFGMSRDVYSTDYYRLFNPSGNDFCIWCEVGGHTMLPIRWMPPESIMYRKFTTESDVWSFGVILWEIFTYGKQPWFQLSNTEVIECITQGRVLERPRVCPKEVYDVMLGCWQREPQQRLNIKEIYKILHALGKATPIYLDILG
Sequence of CYP2D6 (P10635 whole entry): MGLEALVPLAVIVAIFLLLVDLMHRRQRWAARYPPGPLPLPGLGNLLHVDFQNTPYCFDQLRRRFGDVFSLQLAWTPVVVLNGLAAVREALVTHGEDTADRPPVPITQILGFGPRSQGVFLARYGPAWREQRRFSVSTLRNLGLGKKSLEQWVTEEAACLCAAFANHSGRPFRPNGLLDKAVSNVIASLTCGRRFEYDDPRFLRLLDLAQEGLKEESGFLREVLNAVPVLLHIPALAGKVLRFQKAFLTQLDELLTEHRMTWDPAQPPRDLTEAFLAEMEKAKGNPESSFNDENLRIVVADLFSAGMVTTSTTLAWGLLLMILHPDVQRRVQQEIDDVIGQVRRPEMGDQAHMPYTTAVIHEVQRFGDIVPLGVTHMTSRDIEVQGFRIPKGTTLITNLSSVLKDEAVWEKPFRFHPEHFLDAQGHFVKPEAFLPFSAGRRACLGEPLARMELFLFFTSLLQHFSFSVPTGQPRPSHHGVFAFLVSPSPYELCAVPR
T2 sequence (Q16620 538-807): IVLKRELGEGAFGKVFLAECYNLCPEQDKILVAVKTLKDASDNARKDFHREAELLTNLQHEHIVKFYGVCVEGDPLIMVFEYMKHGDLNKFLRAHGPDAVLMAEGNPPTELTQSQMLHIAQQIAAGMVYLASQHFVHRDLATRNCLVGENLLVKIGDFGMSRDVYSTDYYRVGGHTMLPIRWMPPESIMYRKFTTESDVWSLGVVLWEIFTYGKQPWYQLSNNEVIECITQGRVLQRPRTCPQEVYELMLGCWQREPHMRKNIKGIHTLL

Regarding `CCc1ccc(Nc2ccc(Cc3c[nH]c4ncnc(OC)c34)c(F)n2)cn1` [Compound P-4007, (6-Ethyl-pyridin-3-yl)-[6-fluoro-5-(4-methoxy-7H-pyrrolo[2,3-d]pyrimidin-5-ylmethyl)-pyridin-2-yl]-amine], the IC50 on CYP2D6 is over 10000 nM; on BCR-NTRK3 BaF3 cells, under 10 nM; in the experiment on SKNSH cells, under 1000 nM; at BCR-NTRK2 BaF3 cells, under 100 nM.

For `CCc1ccc(Nc2ccc(Cc3c[nH]c4ncnc(OCCOC)c34)c(F)n2)cn1` [Compound P-4016, (6-Ethyl-pyridin-3-yl)-{6-fluoro-5-[4-(2-methoxy-ethoxy)-7H-pyrrolo[2,3-d]pyrimidin-5-ylmethyl]-pyridin-2-yl}-amine], the IC50 on CYP2D6 is over 10000 nM; at BCR-NTRK3 BaF3 cells, under 10 nM; in the experiment with SKNSH cells, over 1000 nM; on BCR-NTRK2 BaF3 cells, under 10 nM.

With `COc1ccc(Nc2ccc(Cc3c[nH]c4ncc(C)cc34)c(F)n2)cn1` [Compound P-3019, [6-fluoro-5-(5-methyl-1H-pyrrolo[2,3-b]pyridin-3-ylmethyl)-pyridin-2-yl]-(6-methoxy-pyridin-3-yl)-amine], the IC50 at CYP2D6 was over 10000 nM; on BCR-NTRK3 BaF3 cells, under 100 nM; with SKNSH cells, under 10000 nM; at BCR-NTRK2 BaF3 cells it was under 100 nM.

With `COCCOc1ncnc2[nH]cc(Cc3ccc(Nc4ccc(C)nc4)nc3F)c12` [Compound P-4015, {6-Fluoro-5-[4-(2-methoxy-ethoxy)-7H-pyrrolo[2,3-d]pyrimidin-5-ylmethyl]-pyridin-2-yl}-(6-methyl-pyridin-3-yl)-amine], the IC50 at CYP2D6 was over 10000 nM; on BCR-NTRK3 BaF3 cells it was under 100 nM; with SKNSH cells, over 1000 nM; at BCR-NTRK2 BaF3 cells it was under 1000 nM.

As to `COc1ncnc2[nH]cc(Cc3ccc(Nc4ccc(Cl)nc4)nc3F)c12` [Compound P-4003, (6-Chloro-pyridin-3-yl)-[6-fluoro-5-(4-methoxy-7H-pyrrolo[2,3-d]pyrimidin-5-ylmethyl)-pyridin-2-yl]-amine], the IC50 on CYP2D6 is over 10000 nM; at BCR-NTRK3 BaF3 cells, under 100 nM; in the experiment with SKNSH cells, over 1000 nM; on BCR-NTRK2 BaF3 cells it was under 1000 nM.

In the case of `Cc1cnc2[nH]cc(C(=O)c3ccc(Nc4ccc(C)nc4)nc3F)c2c1` [Compound P-3043, [2-Fluoro-6-(6-methyl-pyridin-3-ylamino)-pyridin-3-yl]-(5-methyl-1H-pyrrolo[2,3-b]pyridin-3-yl)-methanone], the IC50 at CYP2D6 is over 10000 nM; on BCR-NTRK3 BaF3 cells, under 100 nM; in the experiment on SKNSH cells, under 1000 nM; at BCR-NTRK2 BaF3 cells it was under 100 nM.

For `COc1ncnc2[nH]cc(Cc3ccc(Nc4ccc(C5CC5)nc4)nc3F)c12` [Compound P-4004, (6-Cyclopropyl-pyridin-3-yl)-[6-fluoro-5-(4-methoxy-7H-pyrrolo[2,3-d]pyrimidin-5-ylmethyl)-pyridin-2-yl]-amine], the IC50 was over 10000 nM on CYP2D6, under 10 nM on BCR-NTRK3 BaF3 cells, under 1000 nM in the experiment with SKNSH cells and under 10 nM on BCR-NTRK2 BaF3 cells.

Regarding `CCOc1ccc(Nc2ccc(Cc3c[nH]c4ncnc(OCCOC)c34)c(F)n2)cn1` [Compound P-4008, (6-Ethoxy-pyridin-3-yl)-{6-fluoro-5-[4-(2-methoxy-ethoxy)-7H-pyrrolo[2,3-d]pyrimidin-5-ylmethyl]-pyridin-2-yl}-amine], the IC50 at CYP2D6 is over 10000 nM; on BCR-NTRK3 BaF3 cells, under 100 nM; in the experiment with SKNSH cells, over 1000 nM; on BCR-NTRK2 BaF3 cells, under 100 nM.

As for `CCOc1ncnc2[nH]cc(C(=O)c3ccc(Nc4ccc(OC)nc4)nc3F)c12` [Compound P-4025, (4-Ethoxy-7H-pyrrolo[2,3-d]pyrimidin-5-yl)-[2-fluoro-6-(6-methoxy-pyridin-3-ylamino)-pyridin-3-yl]-methanone], the IC50 at CYP2D6 is over 10000 nM; on BCR-NTRK3 BaF3 cells, under 100 nM; in the experiment on SKNSH cells it was over 1000 nM; at BCR-NTRK2 BaF3 cells, under 100 nM.

With `CCc1ccc(Nc2ccc(Cc3c[nH]c4ncnc(C)c34)c(F)n2)cn1` [Compound P-4009, (6-Ethyl-pyridin-3-yl)-[6-fluoro-5-(4-methyl-7H-pyrrolo[2,3-d]pyrimidin-5-ylmethyl)-pyridin-2-yl]-amine], the IC50 on CYP2D6 was over 10000 nM; on BCR-NTRK3 BaF3 cells, under 10 nM; in the experiment with SKNSH cells, under 100 nM; at BCR-NTRK2 BaF3 cells, under 10 nM.

Turning to `COc1ccc(Nc2ccc(Cc3c[nH]c4ncnc(C5CC5)c34)c(F)n2)cn1` [Compound P-4023, [5-(4-cyclopropyl-7H-pyrrolo[2,3-d]pyrimidin-5-ylmethyl)-6-fluoro-pyridin-2-yl]-(6-methoxy-pyridin-3-yl)-amine], the IC50 on CYP2D6 was 5000 to 10000 nM; at BCR-NTRK3 BaF3 cells, under 10 nM; in the experiment on SKNSH cells, under 1000 nM; on BCR-NTRK2 BaF3 cells it was under 100 nM.

Consider `COc1ccc(Nc2ccc(C(=O)c3c[nH]c4ncc(C)cc34)c(F)n2)cn1` [Compound P-3040, [2-Fluoro-6-(6-methoxy-pyridin-3-ylamino)-pyridin-3-yl]-(5-methyl-1H-pyrrolo[2,3-b]pyridin-3-yl)-methanone], for which the IC50 was over 10000 nM at CYP2D6, under 10 nM on BCR-NTRK3 BaF3 cells, over 1000 nM in the experiment with SKNSH cells and under 10 nM on BCR-NTRK2 BaF3 cells.

For the compound `CCOc1ccc(Nc2ccc(Cc3c[nH]c4ncc(C)cc34)c(F)n2)cn1` [Compound P-3039, (6-ethoxy-pyridin-3-yl)-[6-fluoro-5-(5-methyl-1H-pyrrolo[2,3-b]pyridin-3-ylmethyl)-pyridin-2-yl]-amine], the IC50 was over 10000 nM on CYP2D6, under 100 nM on BCR-NTRK3 BaF3 cells, over 1000 nM with SKNSH cells and under 1000 nM at BCR-NTRK2 BaF3 cells.

As to `CCOc1ncnc2[nH]cc(Cc3ccc(Nc4ccc(OC)nc4)nc3F)c12` [Compound P-4018, [5-(4-Ethoxy-7H-pyrrolo[2,3-d]pyrimidin-5-ylmethyl)-6-fluoro-pyridin-2-yl]-(6-methoxy-pyridin-3-yl)-amine], the IC50 on CYP2D6 was over 10000 nM; at BCR-NTRK3 BaF3 cells, under 10 nM; in the experiment with SKNSH cells, under 1000 nM; at BCR-NTRK2 BaF3 cells, under 100 nM.

As to `CCn1cc(Nc2ccc(Cc3c[nH]c4ncnc(C)c34)c(F)n2)cn1` [Compound P-4013, (1-Ethyl-1H-pyrazol-4-yl)-[6-fluoro-5-(4-methyl-7H-pyrrolo[2,3-d]pyrimidin-5-ylmethyl)-pyridin-2-yl]-amine], the IC50 was over 10000 nM on CYP2D6, under 1000 nM at BCR-NTRK3 BaF3 cells, over 1000 nM in the experiment on SKNSH cells and under 1000 nM on BCR-NTRK2 BaF3 cells.

For `COCCOc1ncnc2[nH]cc(Cc3ccc(Nc4ccc(OC)nc4)nc3F)c12` [Compound P-4019, {6-Fluoro-5-[4-(2-methoxy-ethoxy)-7H-pyrrolo[2,3-d]pyrimidin-5-ylmethyl]-pyridin-2-yl}-(6-methoxy-pyridin-3-yl)-amine], the IC50 is over 10000 nM at CYP2D6, under 100 nM on BCR-NTRK3 BaF3 cells, over 1000 nM in the experiment on SKNSH cells and under 100 nM at BCR-NTRK2 BaF3 cells.

As for `CCOc1ccc(Nc2ccc(Cc3c[nH]c4ncnc(OC)c34)c(F)n2)cn1` [Compound P-4005, (6-Ethoxy-pyridin-3-yl)-[6-fluoro-5-(4-methoxy-7H-pyrrolo[2,3-d]pyrimidin-5-ylmethyl)-pyridin-2-yl]-amine], the IC50 at CYP2D6 was over 10000 nM; on BCR-NTRK3 BaF3 cells, under 10 nM; with SKNSH cells, under 1000 nM; at BCR-NTRK2 BaF3 cells it was under 10 nM.

With `COc1ccc(Nc2ccc(C(=O)c3c[nH]c4ncnc(C5CC5)c34)c(F)n2)cn1` [Compound P-4022, (4-cyclopropyl-7H-pyrrolo[2,3-d]pyrimidin-5-yl)-[2-fluoro-6-(6-methoxy-pyridin-3-ylamino)-pyridin-3-yl]-methanone], the IC50 at CYP2D6 is 5000 to 10000 nM; at BCR-NTRK3 BaF3 cells, under 10 nM; with SKNSH cells, under 1000 nM; at BCR-NTRK2 BaF3 cells, under 10 nM.

For the compound `CCn1cc(Nc2ccc(Cc3c[nH]c4ncnc(OCCOC)c34)c(F)n2)cn1` [Compound P-4014, (1-Ethyl-1H-pyrazol-4-yl)-{6-fluoro-5-[4-(2-methoxy-ethoxy)-7H-pyrrolo[2,3-d]pyrimidin-5-ylmethyl]-pyridin-2-yl}-amine], the IC50 at CYP2D6 is under 5000 nM; on BCR-NTRK3 BaF3 cells, under 1000 nM; with SKNSH cells, over 10000 nM; on BCR-NTRK2 BaF3 cells it was under 1000 nM.

Turning to `Fc1nc(NC2CCC(F)(F)CC2)ccc1Cc1c[nH]c2ncnc(NC3CC3)c12` [Compound P-4129, N-cyclopropyl-5-[[6-[(4,4-difluorocyclohexyl)amino]-2-fluoro-3-pyridyl]methyl]-7H-pyrrolo[2,3-d]pyrimidin-4-amine], the IC50 was 5000 to 10000 nM at CYP2D6, under 100 nM on BCR-NTRK3 BaF3 cells, over 10000 nM in the experiment with SKNSH cells and under 100 nM on BCR-NTRK2 BaF3 cells.

For the compound `CCn1cc(Nc2ccc(Cc3c[nH]c4ncnc(OC)c34)c(F)n2)cn1` [Compound P-4011, (1-Ethyl-1H-pyrazol-4-yl)-[6-fluoro-5-(4-methoxy-7H-pyrrolo[2,3-d]pyrimidin-5-ylmethyl)-pyridin-2-yl]-amine], the IC50 at CYP2D6 is over 10000 nM; on BCR-NTRK3 BaF3 cells, under 1000 nM; in the experiment with SKNSH cells, over 1000 nM; on BCR-NTRK2 BaF3 cells, under 1000 nM.
